PubChem BioAssay (NCI)
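Values below derive from 48-hour exposures of cells grown in 96-well plates, with endpoints linearly interpolated between the two concentrations bracketing the appropriate inhibition level. Here, GI50 denotes the concentration required for 50% inhibition of growth. TGI is the concentration that stops growth completely.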

Assays:
Experiment in all cases: inhibition of tumour cell growth, NCI panel, 48 h
COLO 205 colon = tested on: COLO 205 colon
LOX IMVI melanoma = tested on: LOX IMVI melanoma
M14 melanoma = tested on: M14 melanoma
U251 CNS = tested on: U251 CNS
HCT-116 colon = tested on: HCT-116 colon
HOP-92 NSCLC = tested on: HOP-92 NSCLC
MCF7 breast = tested on: MCF7 breast
MOLT-4 leukemia = tested on: MOLT-4 leukemia
A498 renal = tested on: A498 renal
PC-3 prostate = tested on: PC-3 prostate

Structure (SMILES)	TGI (COLO 205 colon) [µM]	TGI (LOX IMVI melanoma) [µM]	TGI (M14 melanoma) [µM]	TGI (U251 CNS) [µM]	GI50 (COLO 205 colon) [µM]	GI50 (HCT-116 colon) [µM]	TGI (HCT-116 colon) [µM]	GI50 (HOP-92 NSCLC) [µM]	TGI (HOP-92 NSCLC) [µM]	GI50 (LOX IMVI melanoma) [µM]	GI50 (M14 melanoma) [µM]	GI50 (MCF7 breast) [µM]	TGI (MCF7 breast) [µM]	GI50 (MOLT-4 leukemia) [µM]	TGI (MOLT-4 leukemia) [µM]	GI50 (U251 CNS) [µM]	TGI (A498 renal) [µM]	TGI (PC-3 prostate) [µM]	GI50 (A498 renal) [µM]
OCC1C(/C=C/c2ccoc2)ON2CCCC12 (centres undefined)	> 100	> 100	> 100	> 100															
NC(=O)c1ccc(I)c(N=O)c1	44.3	31.8	83.1	36.8	21.7	18.6	32.8	67.1	> 100	16.7	30.5	39.6	> 100	36.5	> 100	18.6			
O=C1NC2(CCCCCC2)C2CCCCCCC12O (centres undefined)	> 100	> 100	> 100	> 100			> 100		> 100						> 100		> 100		
OCC(O)C(Cl)CCl (centres undefined)	> 100		> 100	> 100			> 100						> 100		> 100			> 100	
C=CCNC(=O)N(CCCC(NC(C)=O)C(=O)NCc1ccccc1)Cc1ccccc1 (centres undefined)	> 100	> 100	> 100	> 100					> 100						> 100		> 100		
Cc1cc(C(=C2C=CC(=Nc3ccccc3)C=C2)c2ccc(Nc3ccccc3)cc2)ccc1N	0.407	0.31	1.04	0.39	0.201	0.287	1.02	0.475	1.73	0.169	0.286	0.346	1.37			0.185	1.86		0.543
O=C(NC(=O)c1cn(CCN(CCO)C(=O)NCCCCCCNC(=O)N(CCO)CCn2cc(C(=O)NC(=O)OCc3ccccc3)c(=O)[nH]c2=O)c(=O)[nH]c1=O)OCc1ccccc1	> 100	> 100	> 100	> 100			> 100		> 100						> 100				
O=c1c2ccccc2c(=O)n2n1CC=CC2	> 100	> 100	> 100	> 100			> 100		> 100						> 100		> 100		
COc1ccc2c(c1)[n+]([O-])c(-c1ccc(OC)c(OC)c1)c(N)[n+]2[O-]	34.5	> 100	> 100	> 100											> 100		> 100		
